What was measured:
[1] = Inhibition of mouse CD3-positive T cell activation pre-stimulated with anti-CD3/anti-CD28 followed by compound treatment by flow cytometry
[2] = Inhibition of mouse CD3-positive T cell proliferation pre-stimulated with anti-CD3/anti-CD28 followed by compound treatment by flow cytometry
[3] = molecular target: Phosphatidylinositol 4,5-bisphosphate 3-kinase catalytic subunit beta isoform (Homo sapiens, UniProt P42338); test: Inhibition of PI3Kbeta (unknown origin) using PIP2 as substrate incubated for 1 hr by ADP-Glo assay
[4] = molecular target: Phosphatidylinositol 4,5-bisphosphate 3-kinase catalytic subunit alpha isoform (Homo sapiens, UniProt P42336); test: Inhibition of PI3Kalpha (unknown origin) using PIP2 as substrate incubated for 1 hr by ADP-Glo assay
[5] = molecular target: Phosphatidylinositol 4,5-bisphosphate 3-kinase catalytic subunit gamma isoform (Homo sapiens, UniProt P48736); test: Inhibition of PI3Kgamma (unknown origin) using PIP2 as substrate incubated for 1 hr by ADP-Glo assay
Sequence of Phosphatidylinositol 4,5-bisphosphate 3-kinase catalytic subunit gamma isoform (P48736 whole entry, canonical isoform): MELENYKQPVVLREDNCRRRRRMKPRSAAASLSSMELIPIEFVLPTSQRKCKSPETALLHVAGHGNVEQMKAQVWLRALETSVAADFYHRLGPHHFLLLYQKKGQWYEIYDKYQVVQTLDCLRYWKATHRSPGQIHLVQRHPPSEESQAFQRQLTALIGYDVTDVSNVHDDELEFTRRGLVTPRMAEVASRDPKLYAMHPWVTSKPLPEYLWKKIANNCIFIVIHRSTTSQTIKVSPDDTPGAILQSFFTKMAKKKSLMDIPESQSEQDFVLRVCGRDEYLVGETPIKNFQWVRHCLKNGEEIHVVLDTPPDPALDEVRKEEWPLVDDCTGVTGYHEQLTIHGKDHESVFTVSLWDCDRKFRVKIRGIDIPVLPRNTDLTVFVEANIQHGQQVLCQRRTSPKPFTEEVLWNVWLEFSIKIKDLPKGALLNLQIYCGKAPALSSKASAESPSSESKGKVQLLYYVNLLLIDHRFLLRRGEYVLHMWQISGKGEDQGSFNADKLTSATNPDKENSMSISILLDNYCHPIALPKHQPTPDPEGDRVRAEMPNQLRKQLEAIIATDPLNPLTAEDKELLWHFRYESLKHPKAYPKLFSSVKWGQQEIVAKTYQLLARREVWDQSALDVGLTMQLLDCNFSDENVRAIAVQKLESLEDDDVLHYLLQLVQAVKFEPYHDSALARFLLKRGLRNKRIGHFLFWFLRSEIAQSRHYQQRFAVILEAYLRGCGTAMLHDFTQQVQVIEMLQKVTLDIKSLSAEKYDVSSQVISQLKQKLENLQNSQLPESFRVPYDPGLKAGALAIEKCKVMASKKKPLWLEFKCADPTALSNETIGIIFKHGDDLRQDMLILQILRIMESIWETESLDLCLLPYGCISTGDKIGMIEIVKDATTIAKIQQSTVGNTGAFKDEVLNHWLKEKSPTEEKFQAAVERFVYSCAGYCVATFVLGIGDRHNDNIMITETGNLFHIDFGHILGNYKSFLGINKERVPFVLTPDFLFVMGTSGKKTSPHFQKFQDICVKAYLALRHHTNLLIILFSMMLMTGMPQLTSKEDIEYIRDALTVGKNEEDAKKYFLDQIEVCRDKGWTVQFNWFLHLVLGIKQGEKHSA

Sequence of Phosphatidylinositol 4,5-bisphosphate 3-kinase catalytic subunit beta isoform (P42338 whole entry, canonical isoform): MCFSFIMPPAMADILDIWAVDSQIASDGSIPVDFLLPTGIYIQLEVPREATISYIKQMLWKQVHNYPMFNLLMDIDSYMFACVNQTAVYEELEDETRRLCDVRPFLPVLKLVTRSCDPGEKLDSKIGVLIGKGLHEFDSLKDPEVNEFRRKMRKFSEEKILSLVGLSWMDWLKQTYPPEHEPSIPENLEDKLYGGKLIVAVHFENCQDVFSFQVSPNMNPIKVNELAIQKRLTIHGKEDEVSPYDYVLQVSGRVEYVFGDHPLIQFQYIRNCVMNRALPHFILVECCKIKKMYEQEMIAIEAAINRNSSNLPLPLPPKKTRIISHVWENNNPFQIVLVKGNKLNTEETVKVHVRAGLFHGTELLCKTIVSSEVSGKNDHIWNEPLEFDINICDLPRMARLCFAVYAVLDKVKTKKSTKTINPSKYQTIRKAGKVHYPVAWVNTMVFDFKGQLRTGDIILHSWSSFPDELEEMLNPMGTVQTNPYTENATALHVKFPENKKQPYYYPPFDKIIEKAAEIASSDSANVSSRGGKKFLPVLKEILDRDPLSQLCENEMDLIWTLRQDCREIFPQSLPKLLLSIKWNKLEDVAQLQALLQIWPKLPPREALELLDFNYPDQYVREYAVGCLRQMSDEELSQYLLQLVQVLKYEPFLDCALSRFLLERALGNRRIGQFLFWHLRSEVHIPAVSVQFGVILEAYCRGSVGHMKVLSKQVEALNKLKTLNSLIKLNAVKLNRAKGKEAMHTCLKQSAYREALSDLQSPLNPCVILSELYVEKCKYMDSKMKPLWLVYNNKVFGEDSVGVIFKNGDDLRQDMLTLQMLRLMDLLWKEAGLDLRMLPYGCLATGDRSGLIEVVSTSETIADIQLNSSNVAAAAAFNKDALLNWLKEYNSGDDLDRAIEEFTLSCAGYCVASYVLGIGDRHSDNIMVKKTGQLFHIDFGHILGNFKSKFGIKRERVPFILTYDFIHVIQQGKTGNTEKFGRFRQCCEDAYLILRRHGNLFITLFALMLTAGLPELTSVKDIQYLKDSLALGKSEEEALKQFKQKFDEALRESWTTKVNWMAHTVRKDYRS
Sequence of Phosphatidylinositol 4,5-bisphosphate 3-kinase catalytic subunit alpha isoform (P42336 whole entry, canonical isoform): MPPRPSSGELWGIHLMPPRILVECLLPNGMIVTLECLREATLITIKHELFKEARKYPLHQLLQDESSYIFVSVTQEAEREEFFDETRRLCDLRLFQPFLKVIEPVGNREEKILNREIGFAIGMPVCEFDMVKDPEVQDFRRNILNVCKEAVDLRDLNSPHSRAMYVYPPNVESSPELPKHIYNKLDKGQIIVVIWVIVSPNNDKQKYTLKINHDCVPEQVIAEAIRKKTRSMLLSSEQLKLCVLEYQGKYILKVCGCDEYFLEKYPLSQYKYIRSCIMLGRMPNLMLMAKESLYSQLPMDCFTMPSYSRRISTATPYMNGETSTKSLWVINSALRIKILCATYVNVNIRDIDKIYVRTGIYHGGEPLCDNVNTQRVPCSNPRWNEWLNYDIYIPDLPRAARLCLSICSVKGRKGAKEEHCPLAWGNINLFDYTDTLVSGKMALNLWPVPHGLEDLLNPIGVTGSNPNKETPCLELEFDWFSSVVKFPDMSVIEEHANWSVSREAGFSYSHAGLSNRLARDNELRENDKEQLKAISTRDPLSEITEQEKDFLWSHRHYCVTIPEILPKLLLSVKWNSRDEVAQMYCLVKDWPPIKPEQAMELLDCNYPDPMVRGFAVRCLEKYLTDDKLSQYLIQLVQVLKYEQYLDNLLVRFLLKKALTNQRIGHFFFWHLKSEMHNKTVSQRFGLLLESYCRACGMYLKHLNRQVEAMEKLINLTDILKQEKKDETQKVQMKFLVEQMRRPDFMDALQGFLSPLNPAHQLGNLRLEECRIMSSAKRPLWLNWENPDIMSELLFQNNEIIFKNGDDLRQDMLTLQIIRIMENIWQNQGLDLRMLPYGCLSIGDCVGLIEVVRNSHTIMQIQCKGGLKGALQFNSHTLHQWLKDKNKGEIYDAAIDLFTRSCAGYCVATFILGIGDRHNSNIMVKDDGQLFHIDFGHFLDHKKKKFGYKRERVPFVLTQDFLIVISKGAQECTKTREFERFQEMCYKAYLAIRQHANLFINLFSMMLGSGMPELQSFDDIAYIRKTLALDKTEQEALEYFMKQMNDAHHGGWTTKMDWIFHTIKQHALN

IC50 [1] | IC50 [3] | IC50 [4] | IC50 [5] | Structure (SMILES) | IC50 [2]
> 10 µM |  |  |  | CC[C@H](Nc1ncnc2[nH]cnc12)c1nc2cccc(F)c2c(=O)n1-c1ccccc1 [IDELALISIB] | 8.97 µM
 | > 10 µM | > 10 µM | > 10 µM | CC(Nc1nc(N)nc(N)c1C#N)c1cn(-c2cccnc2)c2cc(Cl)cnc12 (stereo unspecified) | 
 | 2.36 µM | > 10 µM | > 10 µM | C[C@@H](Nc1nc(N)nc(N)c1C#N)c1cn(-c2cccnc2)c2cc(Cl)cnc12 (racemic) | 
 | 1.66 µM | 7.03 µM | > 10 µM | C[C@H](Nc1nc(N)nc(N)c1C#N)c1cn(-c2cccnc2)c2cc(Cl)cnc12 | 

Source: ChEMBL document CHEMBL5506056, “Discovery of Novel Azaindoles as Potent and Selective PI3Kδ Inhibitors for Treatment of Multiple Sclerosis” (J Med Chem, 2024)
